Legend:
Canis familiaris [1] = test: Antiarrhythmic activity was evaluated in mixed-breed or Beagle dogs after intravenous administration.; type: functional, Canis lupus familiaris, Heart
[2] = Therapeutic ratio in mixed-breed or Beagle dogs after intravenous administration of the compound.; type: ADME, Canis lupus familiaris; conditions: dog, in vivo, read-out: TR
Canis familiaris [3] = test: Activity duration index was evaluated in mixed-breed or Beagle dogs after intravenous administration.; type: functional, Canis lupus familiaris
Canis familiaris [4] = test: Minimum effective dose evaluated in mixed-breed or Beagle dogs after intravenous administration; type: functional; conditions: Canis lupus familiaris, read-out: MED
Canis familiaris [5] = test: Compound was evaluated for maximum reduction of ectopic beats after oral administration at a dose 25 mg/kg to dog.; type: functional, Canis lupus familiaris, Heart
Canis familiaris [6] = test: Compound was evaluated for onset of action after oral administration at a dose 25 mg/kg to dog.; type: functional, Canis lupus familiaris
Canis familiaris [7] = test: Compound was evaluated for duration of action after oral administration at a dose 25 mg/kg to dog.; type: functional, Canis lupus familiaris
Canis familiaris [8] = test: Compound was evaluated for duration of action after oral administration at a dose 15 mg/kg to dog.; type: functional, Canis lupus familiaris
Canis familiaris [9] = test: Compound was evaluated for onset of action after oral administration at a dose 15 mg/kg to dog.; type: functional, Canis lupus familiaris
Canis familiaris [10] = test: Compound was evaluated for maximum reduction of ectopic beats after oral administration at a dose 15 mg/kg to dog.; type: functional, Canis lupus familiaris, Heart

Row | Structure (SMILES) | AR (Canis familiaris [1]) | selectivity ratio [2] | ADI (Canis familiaris [3]) | minimal effective dose (Canis familiaris [4]) | Reduction (Canis familiaris [5]) | Onset of action (Canis familiaris [6]) | Duration (Canis familiaris [7]) | Duration (Canis familiaris [8]) | Onset of action (Canis familiaris [9]) | Reduction (Canis familiaris [10])
1 | CC(C)N(CCC(CCN1CCCCC1)(C(N)=O)c1ccc(F)cc1F)C(C)C (configuration not stated) | 6 | > 4 | 0.42 | 6 mg/kg | – | – | – | – | – | –
2 | C=C[C@H]1CN2CC[C@H]1C[C@@H]2[C@@H](O)c1ccnc2ccc(OC)cc12 [QUINIDINE] | 2.2 | – | 0.4 | 13.5 mg/kg | 57% | 110 min | 110 min | – | – | –
3 | CC(C)N(CCC(CCCN1CCCCC1)(C(N)=O)c1ccccc1F)C(C)C (configuration not stated) | 4.2 | > 6 | 0.36 | 7.5 mg/kg | – | – | – | – | – | –
4 | CC(C)N(CCC(CCCN(C)C)(C(N)=O)c1ccccc1F)C(C)C (configuration not stated) | 1.8 | > 4 | 0.12 | 12.5 mg/kg | – | – | – | – | – | –
5 | CC(C)c1ccc(C(CCN2CCCCC2)(CCN(C(C)C)C(C)C)C(N)=O)cc1 (configuration not stated) | 6.2 | 2 | 0.75 | 3 mg/kg | – | – | – | – | – | –
6 | CC(C)N(CCC(CCN(C(C)C)C(C)C)(C(N)=O)c1ccc(Cl)cc1)C(C)C | 6.6 | 2.3 | 0.86 | 3 mg/kg | 100% | 30 min | >330 min | – | – | –
7 | CC(C)N(CCC(CCN1CCCCC1)(C(N)=O)c1ccc(Cl)cc1)C(C)C (configuration not stated) | 6.6 | 1 | 0.51 | 3.5 mg/kg | – | – | – | – | – | –
8 | CC(C)N(CCC(CCN1CCN2CCCC2C1)(C(N)=O)c1ccccc1)C(C)C (configuration not stated) | 2.7 | > 5 | – | 10 mg/kg | – | – | – | – | – | –
9 | CC1CCCCN1CCC(CCN(C(C)C)C(C)C)(C(N)=O)c1ccccc1F (configuration not stated) | 4.6 | 3.2 | 0.6 | 7.5 mg/kg | – | – | – | – | – | –
10 | CC(C)N(CCC(CCN(C(C)C)C(C)C)(C(N)=O)c1cccc(F)c1)C(C)C | 6 | 2.4 | 0.66 | 3 mg/kg | – | – | – | – | – | –
11 | CC(C)N(CCC(CCCN1CCCCC1)(C(N)=O)c1ccccc1Cl)C(C)C (configuration not stated) | 4.6 | 5 | 1.55 | 3.5 mg/kg | – | – | – | – | – | –
12 | CC(C)N(CCC(CCCN1CC2CCC(CC2)C1)(C(N)=O)c1ccccc1Cl)C(C)C (configuration not stated) | 6.3 | 4 | 0.3 | 7 mg/kg | – | – | – | – | – | –
13 | COc1ccc(C(CCN(C(C)C)C(C)C)(CCN(C(C)C)C(C)C)C(N)=O)cc1 | 6.5 | 3.1 | 1.33 | 4 mg/kg | – | – | – | – | – | –
14 | CC(C)N(CCC(CCN1CC2CCC1CC2)(C(N)=O)c1ccccc1)C(C)C (configuration not stated) | 6.7 | 4.6 | 1.38 | 3.5 mg/kg | – | – | – | – | – | –
15 | CC(C)N(CCC(CCN(C(C)C)C(C)C)(C(N)=O)c1cccc(C(F)(F)F)c1)C(C)C | 6 | 2.4 | 1.5 | 3 mg/kg | – | – | – | – | – | –
16 | CC(C)N(CCC(CCN1CCCCC1)(C(N)=O)c1ccccc1)C(C)C (configuration not stated) | 6.1 | 8.2 | 0.45 | 5.5 mg/kg | 97% | 169 min | >300 min | – | – | –
17 | CC(C)N(CCC(CCCN(C)C)(C(N)=O)c1ccccc1)C(C)C (configuration not stated) | – | – | – | 20 mg/kg | – | – | – | – | – | –
18 | CC(C)N(CCC(CCn1cccc1)(C(N)=O)c1ccccc1)C(C)C (configuration not stated) | 2.3 | > 3.3 | 0.13 | 15 mg/kg | – | – | – | – | – | –
19 | CC(C)N(CCC(CCN(C(C)C)C(C)C)(C(N)=O)c1ccccc1F)C(C)C | 6.1 | 15 | 1.52 | 3 mg/kg | 87% | 90 min | 200 min | – | – | –
20 | CC(C)N(CCC(CCN1CCCCCC1)(C(N)=O)c1ccccc1F)C(C)C (configuration not stated) | 6.9 | 7.5 | 0.78 | 3 mg/kg | – | – | – | – | – | –
21 | CC(C)N(CCC(CCN1CCCCCC1)(C(N)=O)c1ccccc1)C(C)C (configuration not stated) | 6.8 | 8.7 | 0.68 | 3 mg/kg | – | – | – | – | – | –
22 | CC(C)N(CCC(CCN(C(C)C)C(C)C)(C(N)=O)c1ccc(Cl)c(Cl)c1)C(C)C | 5.8 | 4.6 | 0.63 | 2.5 mg/kg | – | – | – | – | – | –
23 | CC(C)N(CCC(CCN1C(C)CCCC1C)(C(N)=O)c1ccccc1F)C(C)C (configuration not stated) | 8.3 | 6.7 | 2.2 | 3.3 mg/kg | – | – | – | – | – | –

Row | Structure (SMILES) | AR (Canis familiaris [1]) | selectivity ratio [2] | ADI (Canis familiaris [3]) | minimal effective dose (Canis familiaris [4]) | Reduction (Canis familiaris [5]) | Onset of action (Canis familiaris [6]) | Duration (Canis familiaris [7]) | Duration (Canis familiaris [8]) | Onset of action (Canis familiaris [9]) | Reduction (Canis familiaris [10])
24 | CC(C)N(CCC(CCN(C)C)(C(N)=O)c1ccccc1Cl)C(C)C (configuration not stated) | 2.7 | 4.7 | 0.31 | 7.5 mg/kg | – | – | – | – | – | –
25 | CC(C)N(CCC(CCn1cccc1)(C(N)=O)c1ccccc1F)C(C)C (configuration not stated) | 3.6 | 7.3 | 0.59 | 7.5 mg/kg | – | – | – | – | – | –
26 | CC(C)N(CCC(CCN1CCCCC1)(C(N)=O)c1ccccc1Br)C(C)C (configuration not stated) | 7.2 | 13 | 1.2 | 1.5 mg/kg | – | – | – | – | – | –
27 | CC(C)N(CCC(CCN1CCCCC1)(C(N)=O)c1ccc(F)cc1)C(C)C (configuration not stated) | 4.4 | 1 | 0.58 | 8.3 mg/kg | – | – | – | – | – | –
28 | CCN(CC)CCC(CCN(C(C)C)C(C)C)(C(N)=O)c1ccccc1 (configuration not stated) | 4.6 | 5.5 | 0.94 | 7.5 mg/kg | – | – | – | – | – | –
29 | CC(C)N(CCC(CCN1CCCCC1)(C(N)=O)c1cccc(Cl)c1)C(C)C (configuration not stated) | 4.4 | 3 | 0.7 | 2.3 mg/kg | – | – | – | – | – | –
30 | CC(C)N(CCC(CCN(C)C)(C(N)=O)c1ccc(F)cc1)C(C)C (configuration not stated) | 2.2 | 1.1 | 0.21 | 15 mg/kg | – | – | – | – | – | –
31 | CC(C)N(CCC(CCN1CCCCC1)(C(N)=O)c1ccc(C(C)(C)C)cc1)C(C)C (configuration not stated) | 7.8 | 2.9 | 0.82 | 2.5 mg/kg | – | – | – | – | – | –
32 | CC(C)N(CCC(CCN(C)C1CCCCC1)(C(N)=O)c1ccccc1)C(C)C (configuration not stated) | 7.1 | 4.1 | 1.36 | 2.7 mg/kg | – | – | – | 30 min | 300 min | 69%
33 | CC(C)N(CCC(CCN(C(C)C)C(C)C)(C(N)=O)c1cccc(Cl)c1)C(C)C | 6.9 | 6.7 | 1.42 | 1.5 mg/kg | – | – | – | – | – | –
34 | CC(C)N(CCC(CCN(C(C)C)C(C)C)(C(N)=O)c1ccc(F)cc1)C(C)C | 6.7 | 12 | 1.19 | 2 mg/kg | 92% | 88 min | 147 min | – | – | –
35 | CC(C)N(CCC(CCN(C(C)C)C(C)C)(C(N)=O)c1ccccc1)C(C)C | 6.5 | 3.4 | 1.31 | 5.5 mg/kg | 89% | 200 min | 200 min | – | – | –
36 | CC(C)N(CCC(CCN(C)C1CCCCC1)(C(N)=O)c1ccccc1F)C(C)C (configuration not stated) | 6 | 12.7 | 0.98 | 1.5 mg/kg | 67% | 203 min | 150 min | – | – | –
37 | CC(C)N(CCC(CCN(C)C)(C(N)=O)c1ccccc1)C(C)C (configuration not stated) | 2.6 | > 7.5 | 0.4 | 12 mg/kg | 100% | 131 min | 200 min | – | – | –
38 | CC(C)N(CCC(CCN(C(C)C)C(C)C)(C(N)=O)c1ccc(F)cc1F)C(C)C | 7.7 | 4.7 | 0.69 | 4.5 mg/kg | – | – | – | – | – | –
39 | CC(C)N(CCC(CCN(C(C)C)C(C)C)(C(N)=O)c1ccccc1Br)C(C)C | 6.1 | 8 | 2.16 | 1.5 mg/kg | – | – | – | – | – | –
40 | Cc1ccc(C(CCN(C(C)C)C(C)C)(CCN(C(C)C)C(C)C)C(N)=O)cc1 | 5.3 | 1.9 | – | 2 mg/kg | – | – | – | – | – | –
41 | Cc1ccccc1C(CCN(C(C)C)C(C)C)(CCN(C(C)C)C(C)C)C(N)=O | 6.6 | 6 | 2.57 | 1.5 mg/kg | – | – | – | – | – | –
42 | CC(C)N(CCC(CCN(C(C)C)C(C)C)(C(N)=O)c1ccccc1Cl)C(C)C | 6.5 | 3.5 | 1.57 | 2.5 mg/kg | – | – | – | – | – | –
43 | CC(C)N(CCC(CCN(C(C)C)C(C)C)(C(N)=O)c1ccc(Cl)cc1Cl)C(C)C | 7.6 | 4 | 2.14 | 1.5 mg/kg | – | – | – | – | – | –
44 | CC(C)N(CCC(CCN(C)C)(C(N)=O)c1ccc(C(C)(C)C)cc1)C(C)C (configuration not stated) | 4.9 | 1.3 | 0.76 | 5 mg/kg | – | – | – | – | – | –
45 | CC(C)N(CCC(CCN(C(C)C)C(C)C)(C(N)=O)c1c(Cl)cccc1Cl)C(C)C | 6.9 | 4.6 | 1.2 | 2.7 mg/kg | – | – | – | – | – | –
46 | CC(C)N(CCC(CCN1CCOCC1)(C(N)=O)c1ccccc1)C(C)C (configuration not stated) | 5.6 | 7.6 | – | 5 mg/kg | 84% | 285 min | 52 min | – | – | –

Reference: ChEMBL document CHEMBL1121621, “Synthesis and antiarrhythmic activity of alpha, alpha-bis[(dialkylamino)alkyl]phenylacetamides” (J Med Chem, 1980)
